Experimental data taken from the supplement of paper PMC10307832.

Tests used:
Experiment in all cases: relative viability (nuclei count vs DMSO), 5 days (fraction); higher = more cells survive
[1] = compound: C1CNCCC1C2=CC(=NN2)C3=CC=NC=C3 + CC(=O)c1c(C)c2cnc(Nc3ccc(N4CCNCC4)cn3)nc2n(C2CCCC2)c1=O [Palbociclib] (partner 0.5 µM)
How it was run: (§1)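 Lung cancer cell lines were pin-tool dosed in 1536-well plates on the day after seeding, with either a lone drug or a fixed anchor-drug dose plus five library-drug doses (not always all listed) in √10 steps. Nuclei were counted on 4× images after 5 days. Relative viability is the ratio of treated-well to vehicle-well nuclei counts, with each value a median of duplicate plates.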

[2] = compound: C[C@@H](N)c1ccc(C(=O)Nc2ccnc3[nH]ccc23)cc1 + Cc1cc(Nc2cc(N3CCN(C)CC3)nc(Sc3ccc(NC(=O)C4CC4)cc3)n2)n[nH]1 [Tozasertib] (partner 0.1 µM)
How it was run: as §1

[3] = compound: O[C@H]1CC[C@H](Nc2ncc3nc(Nc4c(F)cc(F)cc4F)n([C@H]4CCOC4)c3n2)CC1 [Tanzisertib] + CC1(C)CCC(c2ccc(Cl)cc2)=C(CN2CCN(c3ccc(C(=O)NS(=O)(=O)c4ccc(N[C@H](CCN5CCOCC5)CSc5ccccc5)c(S(=O)(=O)C(F)(F)F)c4)cc3)CC2)C1 [Navitoclax] (partner 0.5 µM)
How it was run: as §1

[4] = compound: O[C@H]1CC[C@H](Nc2ncc3nc(Nc4c(F)cc(F)cc4F)n([C@H]4CCOC4)c3n2)CC1 [Tanzisertib] + NC(=O)Nc1cc(-c2cccc(F)c2)sc1C(=O)N[C@H]1CCCNC1 [AZD7762] (partner 0.2 µM)
How it was run: as §1

Cell Line	relative viability ([1]; first compound 0.08 µM)	relative viability ([1]; first compound 0.8 µM)	relative viability ([1]; first compound 2.53 µM)	relative viability ([1]; first compound 8 µM)	relative viability ([2]; first compound 0.04 µM)	relative viability ([2]; first compound 0.1265 µM)	relative viability ([2]; first compound 0.4 µM)	relative viability ([2]; first compound 1.265 µM)	relative viability ([2]; first compound 4 µM)	relative viability ([3]; first compound 0.08 µM)	relative viability ([3]; first compound 0.253 µM)	relative viability ([3]; first compound 0.8 µM)	relative viability ([3]; first compound 2.53 µM)	relative viability ([3]; first compound 8 µM)	relative viability ([4]; first compound 0.08 µM)	relative viability ([4]; first compound 0.253 µM)	relative viability ([4]; first compound 0.8 µM)	relative viability ([4]; first compound 2.53 µM)	relative viability ([4]; first compound 8 µM)
201T	0.376	0.353	0.355	0.362	0.945	0.897	0.977	1.08	1.04	1.19	1.18	1.23	1.18	1.18	0.659	0.528	0.578	0.555	0.524
A549										1.3	1.08	1.26	1.1	1.3					
A-427	0.486	0.559	0.529	0.49	0.26	0.185	0.237		0.22	0.952	0.938	1.01	0.86	0.958	0.756	0.766	0.885	0.705	0.662
ABC-1	0.468	0.617	0.733	0.76	0.173	0.158	0.203		0.164						0.914	0.822	0.871	0.649	0.611
BEN	0.447	0.47	0.45	0.433	0.466	0.432	0.53	0.484	0.48	0.0685	0.0675	0.0797	0.072	0.0632	0.622	0.8	0.868	0.724	0.565
CAL-12T	0.535	0.0415	0.566	0.572	0.366	0.392	0.413	0.443	0.283	1.21	1.18	1.37	1.37	1.34	0.606	0.79	0.623	0.636	0.647
COR-L23	0.307	0.278	0.29	0.291	0.232	0.188	0.204	0.202	0.144	1.15	1.05	0.979	1.24	1.03					
COR-L 105	0.394	0.405	0.421	0.472	0.359	0.355	0.349	0.296	0.177	0.88	0.789	0.728	0.819	0.683					
Calu-6										0.872	0.835	0.9	0.848	0.994					
ChaGo-K-1	0.928	0.939	0.943	0.923	0.223	0.219	0.221	0.246	0.21	1.01	1.08	1.1	0.79	0.683	0.926	0.89	0.856	0.839	0.796
EBC-1										0.433	0.419	0.451	0.404	0.318					
EKVX	0.38		0.412	0.395	0.421	0.379	0.494	0.44	0.438	0.95	0.923	0.96	0.91	0.861	0.68	0.795	0.612	0.65	0.535
EMC-BAC-2	0.435	0.513	0.531	0.523	0.252	0.276	0.3	0.271	0.24	1.23	1.16	1.18	1.12	1.07	1.16	1.15	1.04	0.947	1.04
EPLC-272H	0.343	0.359	0.326	0.334	0.304	0.322	0.531	0.287	0.188	1.33	1.14	0.971	1.17	1.04	0.352	0.324	0.175	0.175	0.176
H3255	0.309	0.338	0.327	0.346	0.568	0.632	0.779	0.824	0.613	0.618	0.587	0.428	0.434	0.12	0.95	0.932	1	0.791	0.554
HARA	0.284	0.282	0.281	0.28		0.101	0.0806		0.087	1.13	1.18	1.13	1.14	1.22	0.288	0.358	0.337	0.286	0.275
HCC-15	0.734	0.849	0.79	0.699	0.519	0.332	0.507		0.657	0.754	0.699	0.702	0.671	0.694	1.23	1.25	1.22	1.13	1
HCC-44	0.994	0.997	1	0.97	0.793	0.809	1.15	1.2	0.789	1.18	0.985	0.992	0.916	0.973	0.987	1.05	0.997	1.01	1.15
HCC-78	0.503	0.429	0.472	0.479	0.51	0.405	0.733	0.415	0.633	0.705	0.741	0.766	0.801	0.673	0.694	0.723	0.634	0.474	0.5
HCC-366	0.336	0.409	0.398	0.385	0.141	0.169	0.132		0.229	1.16	1.02	1.08	1.13	1.01		0.316	0.277	0.192	0.286
HCC-827	0.498	0.437	0.534	0.499	0.449	0.445	0.447	0.411	0.412	0.961	1.01	1.11	1	0.742	0.206	0.227	0.19	0.164	0.147
HOP-62	0.34	0.489	0.463	0.468	0.328	0.351	0.369	0.398	0.297	0.978	0.994	0.819	1.11	1.26	0.483	0.503	0.708	0.625	0.47

Cell Line	relative viability ([1]; first compound 0.08 µM)	relative viability ([1]; first compound 0.8 µM)	relative viability ([1]; first compound 2.53 µM)	relative viability ([1]; first compound 8 µM)	relative viability ([2]; first compound 0.04 µM)	relative viability ([2]; first compound 0.1265 µM)	relative viability ([2]; first compound 0.4 µM)	relative viability ([2]; first compound 1.265 µM)	relative viability ([2]; first compound 4 µM)	relative viability ([3]; first compound 0.08 µM)	relative viability ([3]; first compound 0.253 µM)	relative viability ([3]; first compound 0.8 µM)	relative viability ([3]; first compound 2.53 µM)	relative viability ([3]; first compound 8 µM)	relative viability ([4]; first compound 0.08 µM)	relative viability ([4]; first compound 0.253 µM)	relative viability ([4]; first compound 0.8 µM)	relative viability ([4]; first compound 2.53 µM)	relative viability ([4]; first compound 8 µM)
IA-LM										0.814	0.622	0.691	0.963	1.1					
LCLC-103H	0.45	0.407	0.485	0.481	0.502	0.482	0.51	0.421	0.388						0.877	0.735	0.769	0.8	0.754
NCI-H358	0.14	0.126	0.143	0.136	0.111	0.109	0.0968	0.105	0.0998						0.468	0.494	0.695	0.453	0.387
NCI-H520	0.176	0.167	0.219	0.147	0.52	0.462	0.448	0.535	0.424	1.12	1.1	1.1	1.01	1.11					
NCI-H522	0.949	1.1	0.945	1.02	0.591	0.476	0.512	0.509	0.55						1.1	0.891	0.839	0.955	0.886
NCI-H596					0.934	0.839	0.978		0.843	0.978	0.91	0.972	0.888	0.96	1.04	1.04	1.12	0.995	1.04
NCI-H650	0.334	0.352	0.4	0.406		0.665	0.775	0.644	0.588						1.03	1.32	1.01	1.3	0.489
NCI-H661	0.416	0.394	0.394	0.417	0.286	0.355	0.378	0.34	0.363										
NCI-H1299										1.06	1.09	1.06	1.08	1.12					
NCI-H1623					0.443	0.452	0.459	0.475	0.462										
NCI-H1648	0.266	0.352		0.243	0.655	0.513	0.984	1.02	0.957						0.683	0.629	0.73	0.676	0.595
NCI-H1650	0.365	0.315	0.379	0.343	0.386	0.483	0.394	0.291	0.37	1.19	1.22	1.17	1.16	1.12					
NCI-H1703										1.12	0.837	1.05	1.03	0.927	0.146	0.13	0.118	0.135	0.113
NCI-H1792	0.636	0.702	0.718	0.588						0.75	0.777	0.674	0.553	0.598	0.842	0.693	0.742	0.697	0.523
NCI-H2009	0.123	0.148	0.189	0.238	0.736	0.704	0.643	0.623	0.544	1.22	1.27	1.19	1.27	1.22					
NCI-H2023	0.315	0.379	0.418	0.386	0.426	0.377	0.395	0.462	0.279	1.07	1.05	1.08	0.999	0.962					
NCI-H2228	0.822	0.991	0.787	0.863	0.252	0.315	0.267	0.299	0.228	0.985	1.06	1.07	1.04	0.742					
NCI-H2342	0.486	0.545	0.587	0.556	0.496	0.382	0.493	0.495	0.525						0.416	0.633	0.515	0.477	0.41
SK-LU-1	0.418	0.348	0.43	0.397	0.34	0.333	0.372	0.289	0.311	0.834	0.748	0.759	1.25	0.8					
SK-MES-1	0.308	0.316	0.37	0.353	0.881	0.921	0.854	0.825	0.629	1.31	1.25	1.26	1.22	1.21					
SW 900	0.551		0.584	0.561	0.551	0.561	0.551	0.663	0.714							0.646	0.603	0.727	0.423
SW 1573		0.471	0.405	0.411	0.121	0.208	0.174	0.174	0.156	1.02	0.994	0.974	1.05	0.909					
